Measurements: ChEMBL document CHEMBL1201862, “PubChem BioAssay data set” (2004)
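Each compound was tested at five concentrations against cells in 96-well plates for 48 hours. GI50: concentration for 50% inhibition of growth.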 Activity calls are given as the source filed them. Cut-off read from the data, not from the text of the source: active = GI50 up to about 1.1 µM and inactive = higher.

How the values were obtained:
Assay in all cases: NCI anticancer screen, dose series, 48 h
HL-60 = system: HL-60
IGROV-1 = system: IGROV-1
ACHN = system: ACHN
HCT-116 = system: HCT-116
LOX IMVI = system: LOX IMVI
NCI/ADR-RES = system: NCI/ADR-RES
OVCAR-3 = system: OVCAR-3
OVCAR-5 = system: OVCAR-5
UACC-62 = system: UACC-62
SR = system: SR
MCF7 = system: MCF7
HT-29 = system: HT-29
OVCAR-8 = system: OVCAR-8
OVCAR-4 = system: OVCAR-4
SK-MEL-2 = system: SK-MEL-2
SNB-19 = system: SNB-19
NCI-H23 = system: NCI-H23
SK-OV-3 = system: SK-OV-3
T47D = system: T47D
Hs-578T = system: Hs-578T

| Compound | GI50 (HL-60) | GI50 (IGROV-1) | GI50 (ACHN) | GI50 (HCT-116) | GI50 (LOX IMVI) | GI50 (NCI/ADR-RES) | GI50 (OVCAR-3) | GI50 (OVCAR-5) | GI50 (UACC-62) | GI50 (SR) | GI50 (MCF7) | GI50 (HT-29) | GI50 (OVCAR-8) | GI50 (OVCAR-4) | GI50 (SK-MEL-2) | GI50 (SNB-19) | GI50 (NCI-H23) | GI50 (SK-OV-3) | GI50 (T47D) | GI50 (Hs-578T) |
| --- | --- | --- | --- | --- | --- | --- | --- | --- | --- | --- | --- | --- | --- | --- | --- | --- | --- | --- | --- | --- |
| CNC(=O)OCc1nc(SC(C)C)n(C)c1COC(=O)NC | 57 µM (inactive) | > 100 µM (inactive) | > 100 µM (inactive) | > 100 µM (inactive) | > 100 µM (inactive) | > 100 µM (inactive) | > 100 µM (inactive) | > 100 µM (inactive) | > 100 µM (inactive) | > 100 µM (inactive) | > 100 µM (inactive) | > 100 µM (inactive) | > 100 µM (inactive) | > 100 µM (inactive) | > 100 µM (inactive) | > 100 µM (inactive) | > 100 µM (inactive) | > 100 µM (inactive) |  |  |
| O=c1[nH]c2nc(S)nc(S)c2[nH]1 | > 100 µM (inactive) | > 100 µM (inactive) | > 100 µM (inactive) | > 100 µM (inactive) | > 100 µM (inactive) | > 100 µM (inactive) |  | > 100 µM (inactive) | > 100 µM (inactive) | > 100 µM (inactive) |  | > 100 µM (inactive) | > 100 µM (inactive) | > 100 µM (inactive) | > 100 µM (inactive) | > 100 µM (inactive) | > 100 µM (inactive) |  | > 100 µM (inactive) | > 100 µM (inactive) |
| Cc1cn2c(/C=N/NC(=N)N)c(-c3ccc(Cl)c([N+](=O)[O-])c3)nc2s1 | 0.116 µM (active) | 1.03 µM (active) | 1.76 µM (inactive) | 0.207 µM (active) | 0.409 µM (active) | > 28.5 µM (inactive) | 1.13 µM (inactive) | 1.17 µM (inactive) | 1.78 µM (inactive) |  | 0.895 µM (active) | 0.55 µM (active) | 0.416 µM (active) | 1.55 µM (inactive) | 0.647 µM (active) |  | 1.43 µM (inactive) | 1.76 µM (inactive) |  | 0.973 µM (active) |
| Oc1ccc(-c2c3c(nc4c2CCc2ccc(Br)cc2-4)-c2cc(Br)ccc2CC3)cc1 |  | 17 µM (inactive) | 20.7 µM (inactive) | 24.4 µM (inactive) |  | 23 µM (inactive) | 15.1 µM (inactive) | 18 µM (inactive) | 21.3 µM (inactive) |  | 16.8 µM (inactive) |  |  | 22.3 µM (inactive) | 16.8 µM (inactive) | 23.6 µM (inactive) | 20.3 µM (inactive) | 16.5 µM (inactive) | 21.2 µM (inactive) |  |
| CC1(c2ccc(Cl)cc2)c2ccccc2C(=O)N1CCCN1C(=O)c2ccccc2C1=O (stereo not given) | 28.5 µM (inactive) | 9.33 µM (inactive) | 29.6 µM (inactive) | 13.6 µM (inactive) | 19.6 µM (inactive) | 19.9 µM (inactive) | 32.7 µM (inactive) |  | 30.1 µM (inactive) | 34.6 µM (inactive) |  | 32.2 µM (inactive) | 26.7 µM (inactive) | 61.8 µM (inactive) | 20.3 µM (inactive) | 18.3 µM (inactive) | 25.4 µM (inactive) | 31.2 µM (inactive) | 21.3 µM (inactive) | 35.4 µM (inactive) |
| COc1ccccc1NC(=O)C1=C(C)NC(C)=C(C(=O)Nc2ccccc2OC)C1c1ccccc1F | 46.2 µM (inactive) | > 100 µM (inactive) | 51.6 µM (inactive) | 59 µM (inactive) | > 100 µM (inactive) |  | > 100 µM (inactive) | > 100 µM (inactive) | 81.7 µM (inactive) | 64.7 µM (inactive) |  | 91.4 µM (inactive) | > 100 µM (inactive) | > 100 µM (inactive) | 55.8 µM (inactive) | > 100 µM (inactive) | > 100 µM (inactive) | > 100 µM (inactive) |  |  |
| CC(=O)NNc1nc(C)c(C(=O)NNC(=O)C(=O)Nc2ccc(C)c(C)c2)s1 | 70.8 µM (inactive) | > 100 µM (inactive) | > 100 µM (inactive) | > 100 µM (inactive) | 16.7 µM (inactive) |  | 21.3 µM (inactive) | > 100 µM (inactive) | > 100 µM (inactive) | 54.1 µM (inactive) |  | > 100 µM (inactive) | 55.5 µM (inactive) | 72.9 µM (inactive) | > 100 µM (inactive) | > 100 µM (inactive) | > 100 µM (inactive) | > 100 µM (inactive) |  |  |
| NC(=O)Cn1c(=O)oc2cc(C(=O)CN3CCOCC3)ccc21 | > 100 µM (inactive) | > 100 µM (inactive) |  | > 100 µM (inactive) | > 100 µM (inactive) | > 100 µM (inactive) | > 100 µM (inactive) | > 100 µM (inactive) |  | > 100 µM (inactive) | > 100 µM (inactive) | > 100 µM (inactive) | > 100 µM (inactive) |  | > 100 µM (inactive) | > 100 µM (inactive) |  | > 100 µM (inactive) |  | > 100 µM (inactive) |
| O=C1CCC2(c3ccc(Cl)cc3)Nc3ncncc3N12 (stereo not given) |  | > 10 µM (inactive) | > 10 µM (inactive) |  | > 10 µM (inactive) | > 10 µM (inactive) | > 10 µM (inactive) | > 10 µM (inactive) | > 10 µM (inactive) |  | > 10 µM (inactive) | > 10 µM (inactive) | > 10 µM (inactive) | > 10 µM (inactive) | > 10 µM (inactive) | > 10 µM (inactive) | > 10 µM (inactive) | > 10 µM (inactive) |  | > 10 µM (inactive) |
| NNC(=S)NCCNC(=S)NN | > 100 µM (inactive) | > 100 µM (inactive) | > 100 µM (inactive) | > 100 µM (inactive) | > 100 µM (inactive) |  | > 100 µM (inactive) | > 100 µM (inactive) | > 100 µM (inactive) | > 100 µM (inactive) |  | > 100 µM (inactive) |  | > 100 µM (inactive) | > 100 µM (inactive) | > 100 µM (inactive) | > 100 µM (inactive) | > 100 µM (inactive) | > 100 µM (inactive) | > 100 µM (inactive) |
| O=C(OCC(Cl)(Cl)Cl)O[C@@H]1CCCC1(c1ccccc1)c1ccccc1 |  | > 100 µM (inactive) | > 100 µM (inactive) | 44.8 µM (inactive) | 76.7 µM (inactive) | > 100 µM (inactive) |  | > 100 µM (inactive) | > 100 µM (inactive) | 12.6 µM (inactive) | 55.1 µM (inactive) | > 100 µM (inactive) |  | > 100 µM (inactive) |  | > 100 µM (inactive) | 68.1 µM (inactive) | > 100 µM (inactive) | 72.1 µM (inactive) |  |
| C=C1c2nc3ccccc3n2C=C(c2ccc(OC)cc2)N1c1ccc(OC)cc1 | > 100 µM (inactive) | 10.6 µM (inactive) | 7.16 µM (inactive) | 17.4 µM (inactive) | 46.6 µM (inactive) | 5.26 µM (inactive) | 8.18 µM (inactive) | 65.5 µM (inactive) | 16.1 µM (inactive) | 12.8 µM (inactive) | 22 µM (inactive) |  | 7.24 µM (inactive) | 7.78 µM (inactive) | 29.3 µM (inactive) | 4.25 µM (inactive) | 21.1 µM (inactive) | 16.1 µM (inactive) |  |  |
| CC(C)OP(=O)(c1ccccc1)c1ccc2c(c1)OCCOCCOCCOCCO2 (stereo not given) | > 100 µM (inactive) | > 100 µM (inactive) | > 100 µM (inactive) | > 100 µM (inactive) | > 100 µM (inactive) |  |  |  | > 100 µM (inactive) |  | > 100 µM (inactive) | > 100 µM (inactive) | > 100 µM (inactive) |  |  | > 100 µM (inactive) | > 100 µM (inactive) | > 100 µM (inactive) | > 100 µM (inactive) | > 100 µM (inactive) |
| Cc1nc(OCc2ccccc2)c2ncn(CCO)c2n1 | > 100 µM (inactive) | > 100 µM (inactive) | > 100 µM (inactive) | > 100 µM (inactive) | > 100 µM (inactive) | > 100 µM (inactive) | > 100 µM (inactive) | > 100 µM (inactive) | > 100 µM (inactive) | > 100 µM (inactive) | > 100 µM (inactive) | > 100 µM (inactive) |  | > 100 µM (inactive) | > 100 µM (inactive) | > 100 µM (inactive) | > 100 µM (inactive) | > 100 µM (inactive) |  | > 100 µM (inactive) |
| COc1cc(-c2nc3cc(F)ccc3s2)ccc1O | 41 µM (inactive) | 10.9 µM (inactive) | 89.5 µM (inactive) | 62.7 µM (inactive) | 39.1 µM (inactive) | 78.9 µM (inactive) | 12.8 µM (inactive) | > 100 µM (inactive) | 36.6 µM (inactive) | 29.7 µM (inactive) | 4.61 µM (inactive) | 39.3 µM (inactive) | > 100 µM (inactive) | 21.9 µM (inactive) | > 100 µM (inactive) | 83.2 µM (inactive) | 42.2 µM (inactive) | 35.2 µM (inactive) | 0.286 µM (active) |  |
| CSCC[C@H]1C(=O)N=C(N)N1C(=O)OCc1ccccc1 | 14.5 µM (inactive) | 63.7 µM (inactive) | 34.7 µM (inactive) | 17.6 µM (inactive) | 24.5 µM (inactive) | 30.8 µM (inactive) | 38.7 µM (inactive) | > 100 µM (inactive) | 19.1 µM (inactive) | 17.8 µM (inactive) | 28.8 µM (inactive) | 38.3 µM (inactive) | 29 µM (inactive) | 46.5 µM (inactive) | > 100 µM (inactive) | > 100 µM (inactive) | 17.1 µM (inactive) |  |  | 18 µM (inactive) |
| CC1(C)CC(O)CC(C)(C)N1O [TEMPOL HYDROXYLAMINE] |  | > 100 µM (inactive) | > 100 µM (inactive) | > 100 µM (inactive) |  | > 100 µM (inactive) | 68.1 µM (inactive) | > 100 µM (inactive) | > 100 µM (inactive) | > 100 µM (inactive) | > 100 µM (inactive) | > 100 µM (inactive) | > 100 µM (inactive) |  | > 100 µM (inactive) | > 100 µM (inactive) |  | > 100 µM (inactive) | > 100 µM (inactive) |  |
